The values below come from US20080255162A1, “Pyrrolyl Substituted Pyrido[2,3-D]Pyrimidin-7-Ones and Derivatives Thereof as Therapeutic Agents” (WARNER-LAMBERT COMPANY LLC, priority 2004, published 2008).

Molecules are shown by their SMILES. pIC50: −log10 of the molar value.

The target of the assay is T1, PI3Kγ (purified recombinant p101/p110γ protein) (Homo sapiens, UniProt P48736).
T1 construct: HA; made in house; host or cells: Spodoptera frugiperda Sf9 cells (baculovirus co-infection)
T1 sequence (P48736 whole entry, species assumed): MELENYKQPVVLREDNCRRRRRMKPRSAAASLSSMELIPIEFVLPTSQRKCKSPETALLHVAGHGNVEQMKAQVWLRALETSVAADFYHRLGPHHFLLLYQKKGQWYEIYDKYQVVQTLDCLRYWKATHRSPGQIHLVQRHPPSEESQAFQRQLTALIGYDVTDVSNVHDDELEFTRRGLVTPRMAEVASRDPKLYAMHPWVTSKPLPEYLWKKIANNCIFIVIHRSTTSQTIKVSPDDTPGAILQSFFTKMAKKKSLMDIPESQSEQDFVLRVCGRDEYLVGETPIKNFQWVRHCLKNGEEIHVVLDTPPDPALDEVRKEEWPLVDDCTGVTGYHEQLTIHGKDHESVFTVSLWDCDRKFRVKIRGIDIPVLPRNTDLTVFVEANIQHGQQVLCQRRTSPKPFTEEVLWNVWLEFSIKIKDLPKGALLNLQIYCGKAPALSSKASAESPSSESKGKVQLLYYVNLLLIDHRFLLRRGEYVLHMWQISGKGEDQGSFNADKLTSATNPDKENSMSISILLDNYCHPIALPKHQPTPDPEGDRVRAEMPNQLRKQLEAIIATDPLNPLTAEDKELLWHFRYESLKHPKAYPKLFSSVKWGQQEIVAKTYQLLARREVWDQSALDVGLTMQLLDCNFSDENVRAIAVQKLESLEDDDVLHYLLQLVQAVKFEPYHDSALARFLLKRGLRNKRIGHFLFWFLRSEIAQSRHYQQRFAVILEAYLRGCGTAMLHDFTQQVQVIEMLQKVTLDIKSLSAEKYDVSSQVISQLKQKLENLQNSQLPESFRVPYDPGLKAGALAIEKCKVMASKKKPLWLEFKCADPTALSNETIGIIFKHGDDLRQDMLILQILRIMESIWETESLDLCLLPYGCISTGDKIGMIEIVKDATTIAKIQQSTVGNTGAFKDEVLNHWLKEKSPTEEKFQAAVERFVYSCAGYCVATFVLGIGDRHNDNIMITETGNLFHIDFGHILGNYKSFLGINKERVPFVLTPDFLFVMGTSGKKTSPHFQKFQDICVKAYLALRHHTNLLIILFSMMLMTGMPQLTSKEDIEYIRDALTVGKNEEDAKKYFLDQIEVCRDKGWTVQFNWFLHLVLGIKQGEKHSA
T1 sequence (Q8WYR1 whole entry partner, species assumed): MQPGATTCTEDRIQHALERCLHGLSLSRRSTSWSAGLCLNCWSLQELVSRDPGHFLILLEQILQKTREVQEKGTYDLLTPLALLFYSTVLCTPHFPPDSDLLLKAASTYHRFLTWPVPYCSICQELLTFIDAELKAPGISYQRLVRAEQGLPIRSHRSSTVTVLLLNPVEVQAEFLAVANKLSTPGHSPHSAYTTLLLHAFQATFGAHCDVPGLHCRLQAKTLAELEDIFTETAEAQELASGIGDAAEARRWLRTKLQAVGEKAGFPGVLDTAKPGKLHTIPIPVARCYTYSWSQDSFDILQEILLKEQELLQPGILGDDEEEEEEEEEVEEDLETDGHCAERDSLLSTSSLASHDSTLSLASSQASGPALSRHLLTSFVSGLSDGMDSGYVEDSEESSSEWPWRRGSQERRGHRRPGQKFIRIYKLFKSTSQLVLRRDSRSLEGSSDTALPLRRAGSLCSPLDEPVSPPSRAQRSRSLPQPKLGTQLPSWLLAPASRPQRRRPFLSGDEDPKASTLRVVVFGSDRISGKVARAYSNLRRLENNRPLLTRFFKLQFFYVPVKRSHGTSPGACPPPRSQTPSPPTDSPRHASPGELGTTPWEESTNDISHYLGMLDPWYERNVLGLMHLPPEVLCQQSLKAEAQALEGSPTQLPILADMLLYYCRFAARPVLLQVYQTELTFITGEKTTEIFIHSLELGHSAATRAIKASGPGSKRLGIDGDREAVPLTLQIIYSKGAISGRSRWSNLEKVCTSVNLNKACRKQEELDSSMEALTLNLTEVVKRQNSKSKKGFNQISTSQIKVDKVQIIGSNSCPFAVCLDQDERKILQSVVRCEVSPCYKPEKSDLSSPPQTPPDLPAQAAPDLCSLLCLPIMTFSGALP
Put plainly: PI3Kγ In Vitro Kinase Assay. The format is biochemical. The settings on record: final ATP 20 μM, 25 μM PIP2, G protein β1/γ2 subunits, 20 minutes at room temperature. As to the method:
Spodtera frugiperda cells, grown in ESF921 media, were co-infected with baculovirus expressing a glu-tagged p101 and baculovirus expressing an HA-tagged p110γ, at a 3:1 ratio of p101 baculovirus to p110γ baculovirus. Sf9 cells were grown to 1×10^7 total cells/mL in 10 L bioreactors and harvested 48-72 hours post infection. Samples of infected cells were then tested for expression of p101/p110γ PI3 kinase by immunoprecipitation and Western Blot analysis methods (see below).
To purify PI3Kγ, 4 volumes of room temperature hypotonic lysis buffer (1 mM MgCl2, 1 mM DTT, 5 mM EGTA, 1 mM Pefabloc, 0.5 μM aprotinin, 5 μM leupeptin, 2 μM pepstatin, 5 μM E64, pH 8) per gram of cell paste, was poured onto frozen cell pellets with stirring, then lysed in a nitrogen “bomb” at 400 psi (599HC T316, Parr Instrument Co, Moline, Ill.). NaCl was added to 150 mM, and sodium cholate was added to 1% and mixed for another 45 minutes. The lysates were clarified by centrifugation for 25 minutes at 14,000 rpm. The lysates were then loaded over anti-glu-linked Protein-G Sepaharose beads (Covance Research Products, Richmond, Calif.) using 20 mL resin/50 g cell paste. The column was washed with 15 volumes of wash buffer (1 mM DTT, 0.2 mM EGTA, 1 mM Pefabloc, 0.5 μM aprotinin, 5 μM leupeptin, 2 μM pepstatin, 5 μM E64, 150 mM NaCl, 1% sodium cholate, pH 8). PI3Kγ was eluted with 6 column volumes of wash buffer that contain 100 μg/mL of a peptide that competes for binding of the glu tag. The column fractions with the eluted protein (determined by taking OD280 readings) were collected and dialyzed in 0.2 mM EGTA, 1 mM DTT, 1 mM Pefabloc, 5 μM leupeptin, 0.5% sodium cholate, 150 mM NaCl, and 50% glycerol, pH 8. The fractions were stored at −80° C. until further use.
Spodtera frugiperda cells were coinfected with baculovirus expressing a glu-tagged G protein β1 and baculovirus expressing a G protein β2, at a 1:1 ratio of glu-tagged G protein β1 baculovirus to G protein β2 baculovirus. Sf9 cells are grown in 10 L bioreactors and harvested 48-72 hours post infection. Samples of infected cells were tested for G protein β1/β2 expression by Western Blot analysis, as described below. Cell lysates were homogenized and loaded onto a column of glu-tagged beads as in Biological Example 1 and competed off the column with a glu peptide and processed as described in Biological Example 1.
The inhibitory properties of the compounds in Table 1 were assayed in an in vitro PI3K assay. In a 96-well polypropylene plate, each well was spotted with 2 μL of 50 times the desired final concentration of compound in DMSO. Purified recombinant p101/p110γ protein (0.03 μg; ˜2.7 nM) and G protein β1/γ2 subunits (0.09 μg; ˜57.7 nM) for each reaction was combined in the assay buffer (30 mM HEPES, 100 mM NaCl, 1 mM EGTA, and 1 mM DTT). ATP and [γ-^32P-ATP] (0.09 μCi) were added to this mixture so that the final ATP concentration in the reaction was 20 μM. Lipid micelles were formed by sonicating phosphatidylinositol-4,5-diphosphate (PIP2), phosphatidylethanolamine (PE), and Na-cholate in the assay buffer for 10 minutes, adding MgCl2 and incubating on ice for 20 minutes, for final concentrations of 25 μM PIP2, 300 μM PE, 0.02% Na-cholate, and 10 mM MgCl2 in the reaction. The reactions were started by adding equal volumes lipid and enzyme mixture in a total volume of 50 μL, allowed to run for 20 minutes at room temperature, and stopped with 100 μL 75 mM H3PO4. The lipid product was transferred to a glass fiber filter plate and washed with 75 mM H3PO4 several times. The presence of radioactive lipid product (PIP3) was measured by adding Wallac Optiphase mix to each well and counting in a Wallac 1450 Trilux plate reader (PerkinElmer Life Sciences Inc., Boston, Mass. 02118). The IC50 for each compound tested is reported in μM in the Table 2: […]
As for `COC(=O)c1cc(Nc2nc(C)c3ccc(=O)n(C4CCCCCC4)c3n2)cn1C` [Example 1, 4-(8-Cycloheptyl-4-methyl-7-oxo-7,8-dihydro-pyrido[2,3-d]pyrimidin-2-ylamino)-1-methyl-1H-pyrrole-2-carboxylic acid methyl ester], the negative-log IC50 (pIC50) was 7.60.

Turning to `CCOC(=O)c1cc(Nc2nc(C)c3ccc(=O)n(C)c3n2)cn1C(C)c1ccccc1` (stereo not shown) [Example 2, 4-(4,8-Dimethyl-7-oxo-7,8-dihydro-pyrido[2,3-d]pyrimidin-2-ylamino)-1-(1-phenyl-ethyl)-1H-pyrrole-2-carboxylic acid ethyl ester], the pIC50 is 7.20.

For the molecule `COC(=O)c1cc(Nc2nc(C)c3ccc(=O)n(C4CC4)c3n2)cn1C` [Example 3, 4-(8-Cyclopropyl-4-methyl-7-oxo-7,8-dihydro-pyrido[2,3-d]pyrimidin-2-ylamino)-1-methyl-1H-pyrrole-2-carboxylic acid methyl ester], the negative-log IC50 (pIC50) is 7.74. As for `COC(=O)c1cc(Nc2nc(C)c3ccc(=O)n(C4CCC4)c3n2)cn1C` [Example 4, 4-(8-Cyclobutyl-4-methyl-7-oxo-7,8-dihydro-pyrido[2,3-d]pyrimidin-2-ylamino)-1-methyl-1H-pyrrole-2-carboxylic acid methyl ester], the figure is 7.89; as for `COC(=O)c1cc(Nc2nc(C)c3ccc(=O)n(C4CCOCC4)c3n2)cn1C` [Example 5, 1-Methyl-4-[4-methyl-7-oxo-8-(tetrahydro-pyran-4-yl)-7,8-dihydro-pyrido[2,3-d]pyrimidin-2-ylamino]-1H-pyrrole-2-carboxylic acid methyl ester], 7.62. `COC(=O)c1cc(Nc2nc(C)c3ccc(=O)n(C4CCCCC4)c3n2)cn1C` [Example 6, 4-(8-Cyclohexyl-4-methyl-7-oxo-7,8-dihydro-pyrido[2,3-d]pyrimidin-2-ylamino)-1-methyl-1H-pyrrole-2-carboxylic acid methyl ester]: the pIC50 is 8.40.

Turning to `CCOC(=O)c1cc(Nc2nc(C)c3ccc(=O)n(C4CCCCCC4)c3n2)cn1Cc1ccccc1` [Example 7, 1-Benzyl-4-(8-cycloheptyl-4-methyl-7-oxo-7,8-dihydro-pyrido[2,3-d]pyrimidin-2-ylamino)-1H-pyrrole-2-carboxylic acid ethyl ester], the negative-log IC50 (pIC50) was 7.44. As to `COC(=O)c1cc(Nc2nc(C)c3ccc(=O)n(CCC4CC4)c3n2)cn1C` [Example 8, 4-[8-(2-Cyclopropyl-ethyl)-4-methyl-7-oxo-7,8-dihydro-pyrido[2,3-d]pyrimidin-2-ylamino]-1-methyl-1H-pyrrole-2-carboxylic acid methyl ester], the pIC50 is 7.92. Take `COC(=O)c1cc(Nc2nc(C)c3cc(F)c(=O)n(C4CCCC4)c3n2)cn1C` [Example 9, 4-(8-Cyclopentyl-6-fluoro-4-methyl-7-oxo-7,8-dihydro-pyrido[2,3-d]pyrimidin-2-ylamino)-1-methyl-1H-pyrrole-2-carboxylic acid methyl ester]: the negative logarithm of the IC50 (pIC50) was 7.92. Turning to `COC(=O)c1cc(Nc2nc(C)c3cc(F)c(=O)n(CC4CCOCC4)c3n2)cn1C` [Example 10, 4-[6-Fluoro-4-methyl-7-oxo-8-(tetrahydro-pyran-4-ylmethyl)-7,8-dihydro-pyrido[2,3-d]pyrimidin-2-ylamino]-1-methyl-1H-pyrrole-2-carboxylic acid methyl ester], the negative-log IC50 (pIC50) is 8.10. Regarding `COC(=O)c1cc(Nc2nc(C)c3cc(F)c(=O)n(C4CCC(OC)CC4)c3n2)cn1C` (stereo not shown) [Example 11, 4-[6-Fluoro-8-(4-methoxy-cyclohexyl)-4-methyl-7-oxo-7,8-dihydro-pyrido[2,3-d]pyrimidin-2-ylamino]-1-methyl-1H-pyrrole-2-carboxylic acid methyl ester], the pIC50 was 8.30. With `CCOC(=O)c1cc(Nc2nc(C)c3cc(F)c(=O)n(C4CCCC4)c3n2)cn1Cc1cccnc1` [Example 12, 4-(8-Cyclopentyl-6-fluoro-4-methyl-7-oxo-7,8-dihydro-pyrido[2,3-d]pyrimidin-2-ylamino)-1-pyridin-3-ylmethyl-1H-pyrrole-2-carboxylic acid ethyl ester], the negative-log IC50 (pIC50) was 8.40. For the molecule `CCOC(=O)c1cc(Nc2nc(C)c3cc(F)c(=O)n(C4CCCC4)c3n2)cn1C(C)c1ccccc1` (stereo not shown) [Example 13, 4-(8-Cyclopentyl-6-fluoro-4-methyl-7-oxo-7,8-dihydro-pyrido[2,3-d]pyrimidin-2-ylamino)-1-(1-phenyl-ethyl)-1H-pyrrole-2-carboxylic acid ethyl ester], the pIC50 is 6.80. In the case of `CCc1nc(Nc2cc(C(=O)OC)n(C)c2)nc2c1ccc(=O)n2C1CCCCCC1` [Example 14, 4-(8-Cycloheptyl-4-ethyl-7-oxo-7,8-dihydro-pyrido[2,3-d]pyrimidin-2-ylamino)-1-methyl-1H-pyrrole-2-carboxylic acid methyl ester], the negative logarithm of the IC50 (pIC50) was 5.84. `Cc1nc(Nc2cc(C(=O)O)n(C)c2)nc2c1ccc(=O)n2C1CCCCCC1` [Example 15, 4-(8-Cycloheptyl-4-methyl-7-oxo-7,8-dihydro-pyrido[2,3-d]pyrimidin-2-ylamino)-1-methyl-1H-pyrrole-2-carboxylic acid]: the negative-log IC50 (pIC50) is 7.48. As to `Cc1nc(Nc2cc(C(=O)O)n(C(C)c3ccccc3)c2)nc2c1ccc(=O)n2C` (stereo not shown) [Example 16, 4-(4,8-Dimethyl-7-oxo-7,8-dihydro-pyrido[2,3-d]pyrimidin-2-ylamino)-1-(1-phenyl-ethyl)-1H-pyrrole-2-carboxylic acid], the pIC50 was 6.83.

For `Cc1nc(Nc2cc(C(=O)O)n(C)c2)nc2c1ccc(=O)n2C1CC1` [Example 18, 4-(8-Cyclopropyl-4-methyl-7-oxo-7,8-dihydro-pyrido[2,3-d]pyrimidin-2-ylamino)-1-methyl-1H-pyrrole-2-carboxylic acid], the negative logarithm of the IC50 (pIC50) was 6.73. As for `CCc1nc(Nc2cc(C(=O)O)n(C)c2)nc2c1ccc(=O)n2C1CCCCCC1` [Example 20, 4-(8-Cycloheptyl-4-ethyl-7-oxo-7,8-dihydro-pyrido[2,3-d]pyrimidin-2-ylamino)-1-methyl-1H-pyrrole-2-carboxylic acid], the figure is 5.80.

For `Cc1nc(Nc2cc(C(=O)O)n(C)c2)nc2c1ccc(=O)n2C1CCC1` [Example 21, 4-(8-Cyclobutyl-4-methyl-7-oxo-7,8-dihydro-pyrido[2,3-d]pyrimidin-2-ylamino)-1-methyl-1H-pyrrole-2-carboxylic acid], the pIC50 was 7.26. For `Cc1nc(Nc2cc(C(=O)O)n(C(C)C)c2)nc2c1ccc(=O)n2C1CCCCCC1` [Example 22, 4-(8-Cycloheptyl-4-methyl-7-oxo-7,8-dihydro-pyrido[2,3-d]pyrimidin-2-ylamino)-1-isopropyl-1H-pyrrole-2-carboxylic acid] the value was 7.46; for `Cc1nc(Nc2ccn(CC(=O)O)c2)nc2c1ccc(=O)n2C1CCCCCC1` [Example 23, [3-(8-Cycloheptyl-4-methyl-7-oxo-7,8-dihydro-pyrido[2,3-d]pyrimidin-2-ylamino)-pyrrol-1-yl]-acetic acid], 5.96. For `Cc1nc(Nc2cc(C(=O)O)n(C)c2)nc2c1cc(F)c(=O)n2C1CCOCC1` [Example 25, 4-[6-Fluoro-4-methyl-7-oxo-8-(tetrahydro-pyran-4-yl)-7,8-dihydro-pyrido[2,3-d]pyrimidin-2-ylamino]-1-methyl-1H-pyrrole-2-carboxylic acid] the value was 7.40.
